Test results taken from patent publication US6441023B1 (American Home Products Corporation, priority 1997, dated 2002).

Key:
MMP 13 [1] = biological target: T1, MMP 13 (Homo sapiens, UniProt P45452); experiment: MMP 13 inhibition (HTS); type: biochemical
TACE = biological target: T2, TACE (Homo sapiens, UniProt P78536); experiment: Procedure for measuring TACE inhibition; type: biochemical; details: for IC50: read-out: TACE IC 50
T2 construct: purchased Immunex
Method: Using 96-well black microtiter plates, each well receives a solution composed of 10 μL TACE (Inmunex, final concentration 1 μg/mL), 70 μL Tris buffer, pH 7.4 containing 10% glycerol (final concentration 10 mM), and 10 μL of test compound solution in DMSO ([…], DMSO concentration <1%) and incubated for 10 minutes at room temperature. The reaction is initiated by addition of a fluorescent peptidyl substrate (final concentration 100 μM to each well and then shaking on a shaker for 5 sec.
The reaction is read (excitation 340 nm, emission 420 nm) for 10 min. and the increase in fluorescence over time is plotted as a linear line. The slope of the line is calculated and represents the reaction rate.
The mean (xtsem) of the control rate is calculated and compared for statistical significance (p<0.05) with drug-treated rates using Dunnett's multiple comparison test.

MMP 9 = biological target: T3, MMP 9 (Homo sapiens, UniProt P14780); experiment: In vitro gelatinase assay (human neutrophil gelatinase B); type: biochemical; details: read-out: MMP 9 IC 50
T3 construct: from tissue; host or cells: human neutrophils
Method: The assay is based on the cleavage of the thiopeptide substrate ((Ac-Pro-Leu-Gly(2 mercapto-4 methyl-pentanoyl)-Leu-Gly-OEt), Bachem Bioscience) by the enzyme, gelatinase, releasing the substrate product which reacts calorimetrically with DTNB ((5,5′-dithio-bis(2-nitro-benzoic acid)). The enzyme activity is measured by the rate of the color increase.
The thiopeptide substrate is made up fresh as a 20 mM stock in 100% DMSO and the DTNB is dissolved in 100% DMSO as a 100 mM stock and stored in dark at room temperature. Both the substrate and DTNB are diluted together to 1 mM with substrate buffer (50 mM HEPES pH 7.5, 5 mM CaCl2) before use. The stock of human neutrophil gelatinase B is diluted with assay buffer (50 mnM HEPES pH 7.5, 5 mM CaCl2, 0.02% Brij) to a final concentration of 0.15 mnM.
The increase in OD405 is plotted and the slope of the line is calculated which represents the reaction rate.

MMP 1 = biological target: T4, MMP 1 (Homo sapiens, UniProt P03956); experiment: In vitro collagenase assay (human recombinant fibroblast collagenase); type: biochemical; details: for inhibition at 10 µM: read-out: MMP 1 % inhibition at 10 micromolar (*); for IC50: read-out: MMP 1 IC 50
T4 construct: human recombinant fibroblast collagenase (truncated, mw=18,828, WAR, Radnor)
T4 sequence (P03956 100-269 limits assumed): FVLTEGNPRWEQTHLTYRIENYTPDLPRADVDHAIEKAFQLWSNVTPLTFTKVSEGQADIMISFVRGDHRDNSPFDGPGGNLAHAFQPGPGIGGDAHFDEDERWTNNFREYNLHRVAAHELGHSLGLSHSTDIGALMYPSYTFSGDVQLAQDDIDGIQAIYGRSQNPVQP
Method: The assay is based on the cleavage of a peptide substrate ((Dnp-Pro-Cha-Gly-Cys(iNe)-His-Ala-Lys(NMa)-NH2), Peptide International, Inc.) by collag,enase releasing the fluorescent NMa group which is quantitated on the fluorometer. Dnp quenches the NiIa fluorescence in the intact substrate. […] Substrate is dissolved in methanol and stored frozen in 1 mM aliquots. Collagenase is stored frozen in buffer in 25 µM aliquots. For the assay, substrate is dissolved in HCBC buffer to a final concentration of 10 μM and collagenase to a final concentration of 5 nM. Compounds are dissolved in methanol, DMSO, or HCBC. The methanol and DMSO are diluted in HCBC to <1.0%. Compounds are added to the 96 well plate containing enzyme and the reaction is started by the addition of substrate.
The slope of the line is calculated and represents the reaction rate.
The mean (x±sem) of the control rate is calculated and compared for statistical significance (p<0.05) with drug-treated rates using Dunnett's multiple comparison test.

MMP 13 [2] = biological target: T1, MMP 13; experiment: MMP 13 inhibition (manual); type: biochemical; details: read-out: MMP 13 IC 50

T3 sequence (P14780 94-707): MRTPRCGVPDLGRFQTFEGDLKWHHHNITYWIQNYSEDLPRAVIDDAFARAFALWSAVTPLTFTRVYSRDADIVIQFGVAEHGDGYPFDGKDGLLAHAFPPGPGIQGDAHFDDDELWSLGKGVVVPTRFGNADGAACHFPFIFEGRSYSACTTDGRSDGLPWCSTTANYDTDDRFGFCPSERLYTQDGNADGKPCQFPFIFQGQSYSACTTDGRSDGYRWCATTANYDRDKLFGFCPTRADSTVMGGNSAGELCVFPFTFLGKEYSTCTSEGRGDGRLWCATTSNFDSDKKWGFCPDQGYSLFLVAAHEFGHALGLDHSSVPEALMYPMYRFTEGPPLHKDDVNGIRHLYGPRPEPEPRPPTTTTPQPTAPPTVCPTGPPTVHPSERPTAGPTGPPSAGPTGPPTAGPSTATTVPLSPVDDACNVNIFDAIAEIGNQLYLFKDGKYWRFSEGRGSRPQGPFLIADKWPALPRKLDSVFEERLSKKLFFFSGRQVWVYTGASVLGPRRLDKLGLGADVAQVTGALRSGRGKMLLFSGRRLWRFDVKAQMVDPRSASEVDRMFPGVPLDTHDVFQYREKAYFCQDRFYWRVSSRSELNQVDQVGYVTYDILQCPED
T2 sequence (P78536 215-824): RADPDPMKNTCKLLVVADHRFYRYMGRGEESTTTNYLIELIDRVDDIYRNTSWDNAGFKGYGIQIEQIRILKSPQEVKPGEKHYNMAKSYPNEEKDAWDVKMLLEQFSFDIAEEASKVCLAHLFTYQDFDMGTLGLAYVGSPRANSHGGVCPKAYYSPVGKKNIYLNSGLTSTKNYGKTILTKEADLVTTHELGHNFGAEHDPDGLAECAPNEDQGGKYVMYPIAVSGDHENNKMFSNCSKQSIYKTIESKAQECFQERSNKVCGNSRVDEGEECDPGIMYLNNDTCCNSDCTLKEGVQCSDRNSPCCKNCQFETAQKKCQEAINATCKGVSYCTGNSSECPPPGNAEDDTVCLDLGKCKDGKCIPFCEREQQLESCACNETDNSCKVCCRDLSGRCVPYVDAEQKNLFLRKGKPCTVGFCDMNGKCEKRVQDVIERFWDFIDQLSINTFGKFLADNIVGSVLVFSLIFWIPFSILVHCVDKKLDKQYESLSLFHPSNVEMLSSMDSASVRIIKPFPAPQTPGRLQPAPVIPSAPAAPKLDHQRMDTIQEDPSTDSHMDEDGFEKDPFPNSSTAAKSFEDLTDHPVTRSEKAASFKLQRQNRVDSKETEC

For “2-(4-Acetylamino-benzenesufanyl)-N-hydroxy-3-phenyl-propionarnide [Example 129]”, the “MMP 13 % inhibition at 0.2 μM (HTS)” value (MMP 13 [1]) was 90%.
`CCCC(Cc1ccc(OCCN2CCOCC2)cc1)(C(=O)NO)S(=O)(=O)c1ccc(OC)cc1` (centres unmarked) [Example 35, 2-(4-Methoxy-benzenesulfonyl)-2-[4-(2-morpholin-4-yl-ethoxy)-benzyl]-pentanoic acid hydroxyamide] showed a melting point of 101 °C and an IC50 (TACE) of 44.9 nM.
Molecule `COc1ccc(S(=O)(=O)C(Cc2cccnc2)(CC(C)C)C(=O)NO)cc1` (centres unmarked) [Example 66, 2-(4-Methoxy-benzenesulfonyl)-4-methyl-2-pyrdin-3-yh nethyl-pentoic acid hydroxyamide] has a melting point of 78 °C.
Molecule `CC#CCC(Cc1cccnc1)(C(=O)NO)S(=O)(=O)c1ccc(F)cc1` (centres unmarked) [Example 76, 2-(4-Fluoro-benzenesulfonyl)-2-pyridin-3-ylmethyl-hex4-ynoic acid hydroxyamide] has a melting point of 150 °C.
`CCCCCC#CCC(Cc1cccnc1)(C(=O)NO)S(=O)(=O)c1ccc(F)cc1` (centres unmarked) [Example 77, 2-(4-Fluoro-benzenesulfonyl)-2-pyridin-3-ylmethyl-decfynoic acid hydroxyamide] gave a melting point of 123 to 124 °C.
For `COc1ccc(S(=O)(=O)C2(C(=O)NO)CCN(Cc3ccccc3)CC2)cc1` [Example 83, 1-Benzyl-4-(4-methoxy-benzenesulfonyl)-piperidine-4carboxylic Acid hydroxyamide], the melting point was 90 to 95 °C.
`CC(C)C(SCCc1ccccc1)C(=O)NO` (centres unmarked) [Example 117, N-Hydroxy-3-methyl-2-phenethylsulfanyl-butyramide] gave an inhibition at 0.2 µM (MMP 13 [1]; read-out: MMP 13 % inhibition at 0.2 μM (HTS), 0.2 μM) of 7% and an inhibition at 1 µM (TACE; read-out: TACE % inhibition at 1 µM) of 8.1%.
With `O=C(CCC(C(=O)NO)[S+]([O-])c1ccc(Br)cc1)NO` (centres unmarked) [Example 135, 4-Hydroxycarbamoyl-4-(4-bromo-benzenesulfinyl)-butyric acid hydfoxyamide] the “MMP 13 % inhibition at 0.2 μM (HTS)” value (MMP 13 [1]) was 79%.
In the case of `O=C(CCC(C(=O)NO)[S+]([O-])c1ccccc1C(F)(F)F)NO` (centres unmarked) [Example 138, 4-Hydroxycarbamoyl-4-(2-triuoromethyl-benzenesulfmyl)-butyric acid hydroxyamide], the “MMP 13 % inhibition at 0.2 μM (HTS)” value (MMP 13 [1]) is reported as 20%.
In the case of `O=C(CCC(C(=O)NO)S(=O)(=O)c1ccccc1C(F)(F)F)NO` (centres unmarked) [Example 139, 4-Hydroxycarbamoyl-4-(2-trifiuoromethyl-benzenesulfonyl)-butyric acid hydroxyamide], the “MMP 13 % inhibition at 0.2 μM (HTS)” value (MMP 13 [1]) is reported as 8%.
In the case of `C[S+]([O-])c1ccc([S+]([O-])C(COCc2ccccc2)C(=O)NO)cc1` (centres unmarked) [Example 147, 3-Benzyloxy-N-hydroxy-2-(4-methanesulfinyl-benzenesulfmyl)-propionamide], the “MMP 13 % inhibition at 0.2 μM (HTS)” value (MMP 13 [1]) is reported as 73%.
With `CCCCCCC(C(=O)NO)S(=O)(=O)c1cccc(OC)c1` (centres unmarked) [Example 164, 2-(3-Methoxybenzenesulfonyl)tanoic acid hydroxyamide] the “MMP 13 % inhibition at 0.2 μM (HTS)” value (MMP 13 [1]) was 74%.
For `CCCCCCC(SCCc1ccccn1)C(=O)NO` (centres unmarked) [Example 173, 2-(2-Pyridin-2-yl-ethylsulfanyl)-octanoic acid hydroxyaride], the “MMP 13 % inhibition at 36 nM (HTS)” value (MMP 13 [1]) was 18%.
With `CCCCCCC(SC1N=NN(c2ccccc2)N1)C(=O)NO` (centres unmarked) [Example 174, 2-(2-Phenyl-5H-tetrazol-5-ylsulfanyl)-octanoic acid hydroxyanide] the “MMP 13 % inhibition at 36 nM (HTS)” value (MMP 13 [1]) was 10% and the “TACE % inhibition at 1 µM” value (TACE; 1 µM) was 27.7%.
In the case of `CCCCCCC(C(=O)NO)[S+]([O-])CC(=O)Nc1ccc2ccccc2c1` (centres unmarked) [Example 191, 2-(Naphthalen-2-ylcarbamoylmethanesulfimyl)-cmtanoic acid hydroxyamide], the “MMP 13 % inhibition at 36 nM (HTS)” value (MMP 13 [1]) is reported as −45%.
For `CCCCCCC(C(=O)NO)S(=O)(=O)c1nccs1` (centres unmarked) [Example 195, 2-(Thiazol-2-ylsulfonyl)-octanoic acid hydroxyamde], the “MMP 13 % inhibition at 36 nM (HTS)” value (MMP 13 [1]) was −9%.
In the case of `CCCCCCC(C(=O)NO)S(=O)(=O)c1cccc2cccnc12` (centres unmarked) [Example 196, 2-(Quinoline-8-sulfonyl)-octanoic acid hydroxyamde], the “MMP 13 % inhibition at 36 nM (HTS)” value (MMP 13 [1]) is reported as −18%.
With `CCCCCCC(C(=O)NO)S(=O)(=O)CC1NC(=O)NC1=O` (centres unmarked) [Example 198, 2-(2,5-Dioxo-inidazolidinylmethylsulfonyl)-octanoic acid hydroxyamide] the “MMP 13 % inhibition at 36 nM (HTS)” value (MMP 13 [1]) was −39%.
With `CCCCCCC(C(=O)NO)S(=O)(=O)c1ccc(OS(=O)(=O)c2ccccc2[N+](=O)[O-])cc1` (centres unmarked) [Example 238, 2-Nitro-benzenesulfonic acid 4-(1-hydroxycarbamoyl-heptylsulfonyl)-hydroxyamide] the “MMP 13 % inhibition at 36 nM (HTS)” value (MMP 13 [1]) was 22%.
`O=C(NO)C1(S(=O)(=O)c2ccc(OCc3ccccc3)cc2)CCN(Cc2ccccc2)CC1` [Example 241, 1-Benzyl-4-(4-benzyloxy-benzenesulfonyl)-piperidinefcarboxylic acid hydroxyamide] gave a melting point of 89 °C, an IC50 (MMP 9) of 2.7 nM and an inhibition at 10 µM (MMP 1) of 48.2%. For the same molecule, the IC50 (TACE) was 277 nM.
`CCCCOc1ccc(S(=O)(=O)C2(C(=O)NO)CCN(C)CC2)cc1` [Example 244, 1-Methyl-4-(4-butoxy-benzenesulfonyl)-piperidine-4-carboxylic acid hydroxyamide] showed a melting point of 118 °C, an IC50 (MMP 9) of 9.8 nM and an IC50 (MMP 1) of 3420 nM. The IC50 (TACE) was 594 nM and the IC50 (MMP 13 [2]) was 1.5 nM.
With `CCCCOc1ccc(S(=O)(=O)C2(C(=O)NO)CCN(CC)CC2)cc1` [Example 245, 1-Ethyl-4-(4-butoxy-benzenesulfonyl)-piperidine-4-carboxylic acid hydroxyamide] the melting point was 98 °C, the IC50 (MMP 9) was 43.4 nM and the IC50 (MMP 1) was 7060 nM. It also gave an inhibition at 10 µM (TACE; read-out: TACE % inhibition at 10 micromolar (*)) of 52% and an IC50 (MMP 13 [2]) of 2.2 nM.
`CCCCOc1ccc(S(=O)(=O)C2(C(=O)NO)CCN(CCCC)CC2)cc1` [Example 246, 1-n-Butyl-4-(4-butoxy-benzenesulfonyl)-piperidine-4-carboxylic acid hydroxyamide] gave a melting point of 121 °C, an IC50 (MMP 9) of 28.3 nM and an inhibition at 10 µM (MMP 1) of 50.3%. For the same molecule, the IC50 (TACE) was 880 nM and the IC50 (MMP 13 [2]) was 2.4 nM.
